Reference: patent publication US20170348263A1, “COMPOSITIONS AND METHODS OF USING MODIFIED RELEASE SOLABEGRON FOR LOWER URINARY TRACT SYMPTOMS” (VELICEPT THERAPEUTICS, INC., priority 2016, published 2017)

What was measured:
[1] = molecular target: T1, beta-3 adrenoceptor (Rattus norvegicus, UniProt P26255); assay: EC90 determination: inhibition of EFS-induced contraction in rat isolated bladder (pilot CCRC); assay type: cell-based; conditions: pilot concentration response curves, read-out: EC90 concentration to inhibit EFS-induced contraction
T1 construct: The bladder longitudinal smooth muscle, with the urothelium still attached were mounted in 25 mL organ baths; from tissue; host or cells: rat urinary bladder smooth muscle strips (Male CD rats)
Method: Macroscopically normal bladders obtained from Male CD rats (220-250 g) were used. […] Each bladder was cleaned free of surrounding connective tissue and halved longitudinally. The bladder longitudinal smooth muscle, with the urothelium still attached were mounted in 25 mL organ baths containing physiological saline solution (PSS) (composition: 119.0 mM NaCl, 4.7 mM KCl, 1.2 mM MgSO4, 24.9 mM NaHCO3, 1.2 mM KH2PO4, 2.5 mM CaCl2 and 11.1 mM glucose) supplemented with 1 μM prazosin (α1-adrenoceptor antagonist) and 30 nM ICI118551 (β2-adrenoceptor antagonist), aerated with 95% O2/5% CO2 gas mix, warmed and maintained at approximately 37° C. throughout the experiment. Changes in force production were recorded using transducers. […]
In initial experiments the parameters for the EFS were assessed by performing a frequency curve to determine a frequency that would give a response that was approximately 80% of the response seen to 80 mM KCl. Optimal EFS parameters were determined to be: 30 Volts, square pulse of 0.1 ms, train of 4 seconds every 120 seconds, 15 Hz. […]
Pilot studies to determine EC90 concentrations of the test compounds were performed. […] From the data obtained in these experiments, EC90 concentrations of the test compounds were determined for use in subsequent experiments. […]

[2] = molecular target: T1, beta-3 adrenoceptor; assay: Receptor desensitization/washout: CCRC after incubation with EC90 concentration and PSS washout, rat bladder strips; assay type: cell-based
Method: Macroscopically normal bladders obtained from Male CD rats (220-250 g) were used. […] Each bladder was cleaned free of surrounding connective tissue and halved longitudinally. The bladder longitudinal smooth muscle, with the urothelium still attached were mounted in 25 mL organ baths containing physiological saline solution (PSS) (composition: 119.0 mM NaCl, 4.7 mM KCl, 1.2 mM MgSO4, 24.9 mM NaHCO3, 1.2 mM KH2PO4, 2.5 mM CaCl2 and 11.1 mM glucose) supplemented with 1 μM prazosin (α1-adrenoceptor antagonist) and 30 nM ICI118551 (β2-adrenoceptor antagonist), aerated with 95% O2/5% CO2 gas mix, warmed and maintained at approximately 37° C. throughout the experiment. Changes in force production were recorded using transducers. After mounting, the bladder halves were allowed to equilibrate for at least 30 min before they were set to a stable tension of approximately 1.0 g. The tissue was then allowed to equilibrate over at least a 60 min period with washes every 15 min.
In initial experiments the parameters for the EFS were assessed by performing a frequency curve to determine a frequency that would give a response that was approximately 80% of the response seen to 80 mM KCl. Optimal EFS parameters were determined to be: 30 Volts, square pulse of 0.1 ms, train of 4 seconds every 120 seconds, 15 Hz. This frequency was then used to stimulate the tissue for all subsequent experiments. The viability of bladder strips was tested by stimulating the tissue with EFS for minimum of ten minutes.
Following compound incubation, the tissues were washed with PSS for a period of 1, 3 or 6 hr, with washes approximately every 15 min, to remove the drug. At the end of the final wash period the tissues were stimulated with EFS, and left to equilibrate for at least 30 min. A CCRC was then performed in each tissue. Tissue responses were calculated as the mean (SEM) and expressed as percentage of EFS induced tone.
Tissues were incubated with the EC90 concentration of the test compounds for one hr followed by one hr, three hr or six hr of washing with PSS. […] This EFS-induced potentiation of bladder contraction from baseline was not observed with solabegron. […] Effect of the washout period following a […] incubation with test compound.
In the next series of experiments, tissues were incubated with the EC90 concentration of the test compounds for three hr followed by either one hr, three hr or six hr of washing with PSS.

[3] = tested on: overactive bladder; conditions: women with moderate to severe OAB; cited from earlier work
[4] = Solubility of solabegron; assay type: physicochemical
[5] = molecular target: T2, beta-3 adrenoceptor (Homo sapiens, UniProt P13945); assay: Desensitization and resensitization in isolated human bladder tissue strips (EFS responses); assay type: cell-based; set-up: dose or concentration left out as unconfirmed
T2 construct: from tissue; host or cells: human urinary bladder muscle strips
Method: Beta-3 adrenoceptor desensitization and resensitization were examined in the human bladder. Similar to the protocol used in the rat bladder, isolated human bladder tissue strips were studied for EFS responses. Optimal EFS parameters were determined to be: 30 volts, square pulse of 0.1 ms, train of 5 seconds every 60 seconds, 8-10 Hz. […] Following compound incubation, the tissues were washed with PSS for a period of 1 or 3 hr, with washes approximately every 15 min, to remove the drug. At the end of the final wash period the tissues were stimulated with EFS, and left to equilibrate for at least 30 min. A concentration-response curve was then performed in each tissue.

[6] = three hr incubation with EC90, one hr of washing

T1 sequence (P26255 whole entry): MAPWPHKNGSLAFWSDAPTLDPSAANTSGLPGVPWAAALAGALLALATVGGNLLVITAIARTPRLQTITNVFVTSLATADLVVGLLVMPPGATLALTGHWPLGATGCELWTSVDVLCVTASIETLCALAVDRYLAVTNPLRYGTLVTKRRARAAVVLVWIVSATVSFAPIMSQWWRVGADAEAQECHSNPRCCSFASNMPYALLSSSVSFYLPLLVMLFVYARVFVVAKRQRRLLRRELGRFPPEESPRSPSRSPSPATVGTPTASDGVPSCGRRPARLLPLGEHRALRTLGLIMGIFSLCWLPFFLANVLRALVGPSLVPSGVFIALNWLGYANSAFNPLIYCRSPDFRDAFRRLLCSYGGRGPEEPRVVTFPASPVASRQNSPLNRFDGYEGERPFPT
T2 sequence (P13945 whole entry): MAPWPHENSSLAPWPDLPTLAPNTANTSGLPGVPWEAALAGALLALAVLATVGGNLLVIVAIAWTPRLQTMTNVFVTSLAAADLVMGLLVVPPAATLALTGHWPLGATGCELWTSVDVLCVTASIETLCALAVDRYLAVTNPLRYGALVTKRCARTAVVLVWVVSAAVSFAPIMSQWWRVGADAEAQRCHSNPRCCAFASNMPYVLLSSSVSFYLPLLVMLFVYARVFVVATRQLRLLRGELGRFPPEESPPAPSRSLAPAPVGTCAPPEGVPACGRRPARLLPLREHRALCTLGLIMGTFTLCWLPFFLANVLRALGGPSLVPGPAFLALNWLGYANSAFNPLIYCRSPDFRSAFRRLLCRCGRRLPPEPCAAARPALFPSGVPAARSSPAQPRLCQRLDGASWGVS

Row | Structure (SMILES) | EC90 [1] [nM] | response (reduction of EFS-induced tone) after pre-exposure [2, 6] | safety and tolerability, adverse events as compared to placebo [3] | symptoms of overactive bladder [3] | solubility [4] | inhibition of EFS-induced bladder smooth muscle contraction [5] | response (reduction of EFS-induced tone) after pre-exposure ([2]; one hr incubation with EC90, one hr of washing with PSS, vs vehicle incubation) | response (reduction of EFS-induced tone) after pre-exposure ([2]; one hr incubation with EC90, three hr of washing, responses to higher concentrations) | response (reduction of EFS-induced tone) after pre-exposure ([2]; three hr incubation with EC90, three hr of washing, responses to the highest concentrations)
1 | C[C@H](Cc1ccc2c(c1)OC(C(=O)[O-])(C(=O)[O-])O2)NC[C@H](O)c1cccc(Cl)c1.[Na+].[Na+] [CL-316,243, reference compound] | 42 | significantly attenuated |  |  |  |  |  |  | 
2 | O=C(O)c1cccc(-c2cccc(NCCNC[C@H](O)c3cccc(Cl)c3)c2)c1 [Solabegron, 3′-[(2-{[(2R)-2-(3-chlorophenyl)-2-hydroxyethyl]amino}ethyl)amino]biphenyl-3-carboxylic acid] |  | significantly attenuated | safe, well-tolerated, and does not demonstrate significant differences in adverse events as compared to placebo | significantly reduce the symptoms of overactive bladder | pH dependent and low solubility | concentration-dependent inhibition | significantly attenuated | significantly attenuated | significantly attenuated
